Test results from US4073942A, “Halo-substituted hydroxybenzyl-amines as secretolytic agents” (Boehringer Ingelheim GmbH, priority 1972, dated 1978).
Where a name gives a salt, the structure may show the parent alone.

Key:
Format in all cases: in vivo
white mice = assay: Acute toxicity after oral application, 72 hours observation; conditions: white mice, 72 hours
Description: (§1) The acute toxicity was determined on groups of 5 white mice after oral application of a dose ranging between 500 mgm/kg and 5000 mgm/kg per animal (time of observation: 72 hours).

[1] = as above; conditions: mouse, in vivo, po
Description: as §1

[2] = test system: coughs induced by citric acid spray in awake white rats; assay: Antitussive activity: change in number of citric acid-induced coughs after oral application; conditions: 50 mgm/kg oral, compared to control group
[3] = test system: stomach ulcers in female rats; assay: Anti-ulcerogenic activity: acetic acid-induced stomach ulcers; conditions: three weeks
Description: The standard pharmacological test method of […] et al, Jap. J. Pharmac. 19, 418 (1969), was used. The abdominal cavity of female rats having a body weight of 220 to 350 gm under ether anesthesia was opened, and the stomach was exposed. […] The controls received only pulverized rat food. After three weeks, the animals were sacrificed, their stomachs were excised, and the size of the ulcer was determined by measuring its length and width.

[4] = test system: secretion in anesthetized rabbits or guinea pigs; assay: Expectorant effect: secretolytic activity, increase of secretion within 2 hours after oral application; conditions: 8 mgm/kg oral
Description: The increase of secretion within 2 hours was calculated before and after application of the substance see Perry and Boyd in Pharmakol. exp. Therap. 73, 65 (1941)!.

cats = assay: Circulatory effect in cats under chloralose-urethane narcosis after intravenous application; conditions: 3 animals per dose
Description: The circulatory effect in cats was determined under chloralose-urethane narcosis after intravenous application of the test compound (3 animals per dose).

[5] = white mice, 72 hours observation

Compound | animals dead (white mice; 1000 mgm/kg p.o.) | LD50 at 72 h [1, 5] [mg/kg] | Average change in the number of coughs, in per cent, 30 minutes after oral application of 50 mgm/kg [2] [%] | % change in ulcer size versus controls ([3]; 50 mgm/kg p.o. in daily food) [%] | % change in ulcer size versus controls ([3]; 100 mgm/kg p.o. in daily food) [%] | change in vivo at 8 mg/kg [4] [%] | Circulatory effect in cats (cats; 8 mgm/kg) | LD50 at 72 h [1] [mg/kg] | Circulatory effect in cats (cats; 4 mgm/kg) | animals dead (white mice; 5000 mgm/kg p.o.) | animals dead (white mice; 500 mgm/kg p.o.)
Cl.Oc1c(Br)cc(CN[C@H]2CCC[C@@H](O)C2)cc1Br (relative stereo) [C, N-(cis-3'-hydroxy-cyclohexyl)-3,5-dibromo-4-hydroxy-benzylamine hydrochloride] | 0 of 5 | > 1000 | -35 | -11 | -29 |  |  |  |  |  | 
CC(CO)(CO)NCc1cc(Cl)c(O)c(Cl)c1 [H, N-(dihydroxy-tert.butyl)-3,5-dichloro-4-hydroxy-benzylamine hydrochloride] |  |  |  |  |  | 88 |  |  |  |  | 
CCN(Cc1cc(Br)c(O)c(Br)c1)C1CCCCC1 [B, N-ethyl-N-cyclohexyl-3,5-dibromo-4-hydroxy-benzylamine] | 0 of 5 | > 1000 | -34 |  |  | 87 | no change |  |  |  | 
CCN(Cc1cc(Br)cc(Br)c1O)C1CCCCC1 [Compound A, N-ethyl-N-cyclohexyl-(3,5-dibromo-2-hydroxy)-benzylamine hydrochloride] | 0 of 5 |  | -38 | -39 | -54 | 81 |  | > 1000 | no change |  | 
CC(CO)(CO)NCc1cc(Br)cc(Br)c1O [G, N-(dihydroxy-tert.butyl)-3,5-dibromo-2-hydroxy-benzylamine hydrochloride] |  | > 5000 |  |  |  | 88 |  |  |  | 0 of 5 | 
CN(Cc1cc(Br)cc(Br)c1O)C1CCCCC1 [J, N-methyl-N-cyclohexyl-(3,5-dibromo-2-hydroxy)-benzylamine hydrochloride] |  | > 5000 |  | -73 | -82 |  |  |  |  | 1 of 5 | 
CCC(C)(C)NCc1cc(Br)cc(Br)c1O.Cl [Compound I, N-tert.pentyl-3,5-dibromo-2-hydroxy-benzylamine hydrochloride] |  | > 5000 |  |  |  | 80 |  |  |  | 0 of 5 | 
CN(Cc1cc(Cl)c(O)c(Br)c1)C1CCCCC1.Cl [E, n-methyl-N-cyclohexyl-3-bromo-5-chloro-4-hydroxy-benzylamine hydrochloride] |  | > 500 |  |  |  | 65 |  |  |  |  | 0 of 5
Oc1c(Br)cc(Br)cc1CN[C@H]1CC[C@H](O)CC1 [F, N-(trans-4'-hydroxy-cyclohexyl)-3,5-dibromo-2-hydroxy-benzylamine] |  | > 5000 |  | -59 | -78 | 70 |  |  |  | 0 of 5 | 
Oc1c(Br)cccc1CN[C@H]1CC[C@H](O)CC1 [D, N-(trans-4'-hydroxy-cyclohexyl)-3-bromo-2-hydroxy-benzylamine] |  | > 500 |  |  |  | 66 |  |  |  |  | 0 of 5
